From US20180036289A1 (Gilead Sciences, Inc., priority 2016, published 2018)

Legend:
[1] = system: MeWo; assay: Cell proliferation assay (ATPlite), drug with vs without cobicistat; type: cell-based; details: MeWo cell line; 120 hours incubation
Procedure: (§1) All cell lines were obtained from the American Type Culture Collection (ATCC) Manassas, Va. (US). Master and working cell banks (MCB and WCB) were prepared by subculturing in ATCC-recommended media and freezing protocols (www.atcc.org). Cell line stocks for the assays were prepared from the WCB. The MCB, WCBs and assay stocks were prepared within respectively 3, 6 and 9 passages of the ATCC vial.
(§2) Solid powders of reference compounds were weighed on a calibrated balance and dissolved in 100% DMSO. DMSO samples were stored at room temperature. At the day of the experiment, the compound stock was diluted in 3.16 fold steps in 100% DMSO to obtain a 9-point dilution series. This was further diluted 31.6 times in 20 mM sterile Hepes buffer pH 7.4. A volume of 5 μl was transferred to the cells to generate a test concentration range from 3.16×10^−5M to 3.16×10^−9 M in duplicate. The final DMSO concentration during incubation was […] in all wells.
(§3) An assay stock was thawed and diluted in its ATCC recommended medium and dispensed in a 384-well plate, depending on the cell line used, at a concentration of 200-3200 cells per well in 45 μl medium. For each used cell line the optimal cell density is used. The margins of the plate were filled with phosphate-buffered saline. Plated cells were incubated in a humidified atmosphere of 5% CO2 at 37° C. After 24 hours, 5 μl of compound dilution was added and plates were further incubated for another 120 hours. After 120 hours, 25 μl of ATPlite 1Step™ (PerkinElmer) solution was added to each well, and subsequently shaken for 2 minutes. After 10 minutes of incubation in the dark, the luminescence was recorded on an Envision multimode reader (PerkinElmer).
(§4) IC50s were calculated by non-linear regression using IDBS XLfit 5. The percentage growth after 120 h (%-growth) was calculated as follows: 100%×(luminescencet=120h/luminescenceuntreated,t=120h). This was fitted to the ^10log compound concentration (conc) by a 4-parameter logistics curve: %−growth=bottom+(top−bottom)/(1+10^(log IC50-conc)*hill)), where hill is the Hill-coefficient, and bottom and top the asymptotic minimum and maximum cell growth that the compound allows in that assay.

[2] = system: SHP-77; assay: as above; type: cell-based; details: SHP-77 cell line; 120 hours incubation
Procedure: as §1, §2, §3, §4

[3] = system: PA-1; assay: as above; type: cell-based; details: PA-1 cell line; 120 hours incubation
Procedure: as §1, §2, §3, §4

[4] = system: MG-63; assay: as above; type: cell-based; details: MG-63 cell line; 120 hours incubation
Procedure: as §1, §2, §3, §4

[5] = system: U-2 OS; assay: as above; type: cell-based; details: U-2 OS cell line; 120 hours incubation
Procedure: as §1, §2, §3, §4

[6] = system: C-33 A; assay: as above; type: cell-based; details: C-33 A cell line; 120 hours incubation
Procedure: as §1, §2, §3, §4

[7] = system: SR; assay: as above; type: cell-based; details: SR cell line; 120 hours incubation
Procedure: as §1, §2, §3, §4

[8] = system: AU-565; assay: as above; type: cell-based; details: AU-565 cell line; 120 hours incubation
Procedure: as §1, §2, §3, §4

[9] = system: RPMI-7951; assay: as above; type: cell-based; details: RPMI-7951 cell line; 120 hours incubation
Procedure: as §1, §2, §3, §4

[10] = system: HCT-15; assay: as above; type: cell-based; details: HCT-15 cell line; 120 hours incubation
Procedure: as §1, §2, §3, §4

[11] = system: HCT 116; assay: as above; type: cell-based; details: HCT 116 cell line; 120 hours incubation
Procedure: as §1, §2, §3, §4

[12] = system: LoVo; assay: as above; type: cell-based; details: LoVo cell line; 120 hours incubation
Procedure: as §1, §2, §3, §4

[13] = system: A375; assay: as above; type: cell-based; details: A375 cell line; 120 hours incubation
Procedure: as §1, §2, §3, §4

[14] = system: CCRF-CEM; assay: as above; type: cell-based; details: CCRF-CEM cell line; 120 hours incubation
Procedure: as §1, §2, §3, §4

[15] = system: A-498; assay: as above; type: cell-based; details: A-498 cell line; 120 hours incubation
Procedure: as §1, §2, §3, §4

[16] = system: NCI-H82; assay: as above; type: cell-based; details: NCI-H82 cell line; 120 hours incubation
Procedure: as §1, §2, §3, §4

[17] = system: Daoy; assay: as above; type: cell-based; details: Daoy cell line; 120 hours incubation
Procedure: as §1, §2, §3, §4

[18] = system: DoTc2 4510; assay: as above; type: cell-based; details: DoTc2 4510 cell line; 120 hours incubation
Procedure: as §1, §2, §3, §4

[19] = system: Hs 578T; assay: as above; type: cell-based; details: Hs 578T cell line; 120 hours incubation
Procedure: as §1, §2, §3, §4

[20] = system: A-549; assay: as above; type: cell-based; details: A-549 cell line; 120 hours incubation
Procedure: as §1, §2, §3, §4

[21] = system: J82; assay: as above; type: cell-based; details: J82 cell line; 120 hours incubation
Procedure: as §1, §2, §3, §4

[22] = system: SJCRH30; assay: as above; type: cell-based; details: SJCRH30 cell line; 120 hours incubation
Procedure: as §1, §2, §3, §4

[23] = system: AN3 CA; assay: as above; type: cell-based; details: AN3 CA cell line; 120 hours incubation
Procedure: as §1, §2, §3, §4

[24] = system: MIA PaCa-2; assay: as above; type: cell-based; details: MIA PaCa-2 cell line; 120 hours incubation
Procedure: as §1, §2, §3, §4

[25] = system: SK-N-AS; assay: as above; type: cell-based; details: SK-N-AS cell line; 120 hours incubation
Procedure: as §1, §2, §3, §4

[26] = system: COLO 205; assay: as above; type: cell-based; details: COLO 205 cell line; 120 hours incubation
Procedure: as §1, §2, §3, §4

[27] = system: U-87 MG; assay: as above; type: cell-based; details: U-87 MG cell line; 120 hours incubation
Procedure: as §1, §2, §3, §4

[28] = system: RT4; assay: as above; type: cell-based; details: RT4 cell line; 120 hours incubation
Procedure: as §1, §2, §3, §4

[29] = system: OVCAR-3; assay: as above; type: cell-based; details: OVCAR-3 cell line; 120 hours incubation
Procedure: as §1, §2, §3, §4

[30] = system: TT; details: TT cell line; 120 hours incubation
Procedure: as §1, §2, §3, §4

## CC[C@]1(O)C[C@H]2CN(CCc3c([nH]c4ccccc34)[C@@](C(=O)OC)(c3cc4c(cc3OC)N(C=O)[C@H]3[C@@](O)(C(=O)OC)[C@H](OC(C)=O)[C@]5(CC)C=CCN6CC[C@]43[C@@H]65)C2)C1 [vincristine]
[1]
  Fold change in IC50 (IC50 [Drug + Cobicistat]/IC50 [Drug]): 2.9 fold
[2]
  Fold change in IC50 (IC50 [Drug + Cobicistat]/IC50 [Drug]): 2.6 fold
[3]
  Fold change in IC50 (IC50 [Drug + Cobicistat]/IC50 [Drug]): 4.2 fold
[4]
  Fold change in IC50 (IC50 [Drug + Cobicistat]/IC50 [Drug]): 3.8 fold
[5]
  Fold change in IC50 (IC50 [Drug + Cobicistat]/IC50 [Drug]): 3.5 fold
[6]
  Fold change in IC50 (IC50 [Drug + Cobicistat]/IC50 [Drug]): 2.7 fold
[7]
  Fold change in IC50 (IC50 [Drug + Cobicistat]/IC50 [Drug]): 3.6 fold
[8]
  Fold change in IC50 (IC50 [Drug + Cobicistat]/IC50 [Drug]): 3.0 fold
[9]
  Fold change in IC50 (IC50 [Drug + Cobicistat]/IC50 [Drug]): 4.6 fold
[10]
  Fold change in IC50 (IC50 [Drug + Cobicistat]/IC50 [Drug]): 2.1 fold
[11]
  Fold change in IC50 (IC50 [Drug + Cobicistat]/IC50 [Drug]): 1.4 fold
[12]
  Fold change in IC50 (IC50 [Drug + Cobicistat]/IC50 [Drug]): 1.6 fold
[13]
  Fold change in IC50 (IC50 [Drug + Cobicistat]/IC50 [Drug]): 4.4 fold
[14]
  Fold change in IC50 (IC50 [Drug + Cobicistat]/IC50 [Drug]): 3.6 fold
[15]
  Fold change in IC50 (IC50 [Drug + Cobicistat]/IC50 [Drug]): 3.2 fold
[16]
  Fold change in IC50 (IC50 [Drug + Cobicistat]/IC50 [Drug]): 3.1 fold
[17]
  Fold change in IC50 (IC50 [Drug + Cobicistat]/IC50 [Drug]): 4.6 fold
[18]
  Fold change in IC50 (IC50 [Drug + Cobicistat]/IC50 [Drug]): 6.2 fold
[19]
  Fold change in IC50 (IC50 [Drug + Cobicistat]/IC50 [Drug]): 2.8 fold
[20]
  Fold change in IC50 (IC50 [Drug + Cobicistat]/IC50 [Drug]): 1.9 fold
[21]
  Fold change in IC50 (IC50 [Drug + Cobicistat]/IC50 [Drug]): 3.6 fold
[22]
  Fold change in IC50 (IC50 [Drug + Cobicistat]/IC50 [Drug]): 3.5 fold
[23]
  Fold change in IC50 (IC50 [Drug + Cobicistat]/IC50 [Drug]): 4.7 fold
[24]
  Fold change in IC50 (IC50 [Drug + Cobicistat]/IC50 [Drug]): 3.6 fold
[25]
  Fold change in IC50 (IC50 [Drug + Cobicistat]/IC50 [Drug]): 4.7 fold
[26]
  Fold change in IC50 (IC50 [Drug + Cobicistat]/IC50 [Drug]): 4.0 fold
[27]
  Fold change in IC50 (IC50 [Drug + Cobicistat]/IC50 [Drug]): 3.1 fold
[28]
  Fold change in IC50 (IC50 [Drug + Cobicistat]/IC50 [Drug]): 4.0 fold
[29]
  Fold change in IC50 (IC50 [Drug + Cobicistat]/IC50 [Drug]): 4.0 fold
[30]
  Fold change in IC50 (IC50 [Drug + Cobicistat]/IC50 [Drug]): 4.8 fold
